From patent US10226451B2, “Substituted bicyclic compounds as bromodomain inhibitors” (ZENITH EPIGENETICS LTD, priority 2013, dated 2019) come the findings set out here.

Experiment [1] has as its target T1, Brd4 bromodomain 1 (BRD4(1)) (Homo sapiens, UniProt O60885).
T1 construct: made in house; host or cells: E. coli BL21(DE3)
The experiment can be described thus: Inhibition of tetra-acetylated histone H4 binding to Brd4 bromodomain 1 (HTRF/FRET). The conditions noted are these: tetra-acetylated histone H4 peptide, His-tagged bromodomain 200 nM, 2 h. The method in brief: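 Inhibition was read as a drop in 665 nm relative to 620 nm HTRF signal after 2 h at room temperature, with IC50 from dose-response curves in duplicate wells. Reactions held 200 nM E. coli-expressed His-tagged bromodomain and 25-50 nM biotinylated tetra-acetylated histone H4 peptide. Buffer was 30 mM HEPES pH 7.4 with KF, CHAPS, BSA and 0.2% DMSO.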
(TR-FRET usually uses a lanthanide donor and a delayed reading to cut background.)

Another experiment concerns Human AML MV-4-11 cells. Description: Inhibition of cell proliferation in MV4-11 cells (CellTiter Aqueous One). The experiment is classed as cell-based. The conditions noted are these: 72 h. The method in brief:
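MV4-11 cells at 5×10^4/well in IMDM with 10% FBS were exposed to increasing compound concentrations or 0.1% DMSO, in triplicate, for 72 h at 37 °C. A further 3-4 h with CellTiter Aqueous One reagent followed. A490, blank-corrected and expressed relative to DMSO, gave IC50.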

Experiment [2] has as its system c-myc in Human AML MV4-11 cells. The experiment can be described thus: Inhibition of c-MYC expression (mRNA, real-time PCR) in MV4-11 cells. Type of experiment: cell-based. The conditions noted are these: 3 h, mRNA by real-time PCR. An outline of the steps:
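Cells at 2.5×10^4 per well in IMDM/10% FBS were treated with rising compound concentrations or 0.1% DMSO for 3 h at 37° C., in triplicate. cMYC mRNA was measured by one-step TaqMan qRT-PCR, normalised to cyclophilin, and expressed as fold expression relative to control.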
(Quantitative PCR measures a nucleic acid by following its amplification.)

The next experiment has as its system hIL-6 mRNA in U937 cells. The experiment can be described thus: Inhibition of hIL-6 mRNA transcription in LPS-stimulated U937 cells. The experiment is classed as cell-based. Particulars: Homo sapiens, U-937, PMA-differentiated U937 cells, LPS 1 ug/mL, 3 h, read-out: IL-6 activity. The method in brief:
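U937 cells were differentiated to macrophages with 60 ng/mL PMA for 3 days, pretreated 1 h with compound in 0.1% DMSO, then stimulated with 1 ug/mL E. coli LPS for 3 h at 37° C. hIL-6 mRNA was quantified by one-step TaqMan RT-qPCR, normalized to cyclophilin, as fold expression versus control.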

Experiment [3] concerns hIL-17 mRNA in human peripheral blood mononuclear cells. Description: Inhibition of hIL-17 mRNA transcription in OKT3-stimulated PBMC. The experiment is classed as cell-based. The conditions noted are these: OKT3 antibody, 6 h, read-out: IL-17 activity. On the procedure: In this example, hIL-17 mRNA in human peripheral blood mononuclear cells were quantitated to measure the transcriptional inhibition of hIL-17 when treated with a compound of the present disclosure.
Human peripheral blood mononuclear cells were plated (2.0×10^5 cells per well) in a 96-well plate in 45 μL OpTimizer T Cell expansion media (Life Technologies) containing 20 ng/ml IL-2 and penicillin/streptomycin. The cells were treated with increasing concentrations of the test compound or DMSO (0.1%), and incubated at 37° C., 5% CO2 for 1 h before addition of 10× stock OKT3 antibody at 10 ug/ml in media. Triplicate wells were used for each concentration. Cells were incubated at 37° C., 5% CO2 for 6 h before the cells were harvested. At time of harvest, cells were pelleted by centrifugation at 800 rpm for 5 min. Cells were harvested using the mRNA Catcher PLUS kit according to manufacturer's instructions. The eluted mRNA was then used in a one-step quantitative real-time PCR reaction, using components of the RNA UltraSense™ One-Step Kit (Life Technologies) together with Applied Biosystems TaqMan® primer-probes for hIL-17 and Cyclophilin. Real-time PCR plates were run on a ViiA™7 real time PCR machine (Applied Biosystems), data was analyzed, normalizing the Ct values for hIL-17 to an internal control, prior to determining the fold induction of each unknown sample, relative to the control.

The subject of experiment [4] is hApoA-I mRNA in Huh7 cells. The experiment can be described thus: Up-regulation of hApoA-1 mRNA transcription in Huh7 cells. Type of experiment: cell-based, Human. Particulars: EC170, Huh7 cells, 48 h. On the procedure: In this example, hApoA-I mRNA in tissue culture cells was quantitated to measure the transcriptional up-regulation of hApoA-I when treated with a compound of the present disclosure.
Huh7 cells (2.5×10^5 per well) were plated in a 96-well plate using 100 μL DMEM per well, (Gibco DMEM supplemented with penicillin/streptomycin and 10% FBS), 72 h before the addition of the compound. The cells are treated with increasing concentrations of the compound or DMSO (0.1%), and incubated at 37° C., 5% CO2 for 48 h. Spent media was removed from the Huh-7 cells and placed on ice for immediate use with the “LDH cytotoxicity assay Kit II” from Abcam. The cells remaining in the plate were rinsed with 100 μL PBS. Cells were harvested using the mRNA Catcher PLUS kit according to manufacturer's instructions. The eluted mRNA was then used in a one-step quantitative real-time PCR reaction, using components of the RNA UltraSense™ One-Step Kit (Life Technologies) together with Applied Biosystems TaqMan® primer-probes for hApoA-I and Cyclophilin. Real-time PCR plates were run on a ViiA™7 real time PCR machine (Applied Biosystems), data was analyzed, normalizing the Ct values for hApoA-1 to an internal control, prior to determining the fold induction of each unknown sample, relative to the control.

For the compound `Cc1noc(C)c1-c1cc(-c2c(C)noc2C)c2[nH]c(=O)[nH]c2c1` [Example Compound 1, 4,6-bis(3,5-dimethylisoxazol-4-yl)-1H-benzo[d]imidazol-2(3H)-one], the IC50 is no more than 300 nM in experiment [1]; no more than 300 nM in the experiment with Human AML MV-4-11 cells; 300 to 3000 nM in experiment [2]; no more than 300 nM in the experiment on hIL-6 mRNA in U937 cells; no more than 300 nM in experiment [3]. Besides, the ApoA-1 activity result in experiment [4] was “+++ (EC170 value less than or equal to 0.3 μM were deemed to be highly active (+++))”.

As for `Cc1ncccc1-c1cc(-c2c(C)noc2C)cc2[nH]c(=O)n(C)c12` [Example Compound 4, 5-(3,5-dimethylisoxazol-4-yl)-1-methyl-7-(2-methylpyridin-3-yl)-1H-benzo[d]imidazol-2(3H)-one], the IC50 was no more than 300 nM in experiment [1]; 300 to 3000 nM in the experiment on Human AML MV-4-11 cells; no more than 300 nM in experiment [2]; no more than 300 nM in the experiment on hIL-6 mRNA in U937 cells; 300 to 3000 nM in experiment [3]. Moreover, in experiment [4], the ApoA-1 activity entry was “+++ (EC170 value less than or equal to 0.3 μM were deemed to be highly active (+++))”.

For the compound `Cc1nn(C)cc1-c1cc(-c2c(C)noc2C)cc2[nH]c(=O)n(C)c12` [Example Compound 7, 7-(1,3-dimethyl-1H-pyrazol-4-yl)-5-(3,5-dimethylisoxazol-4-yl)-1-methyl-1H-benzo[d]imidazol-2(3H)-one], the IC50 is no more than 300 nM in experiment [1]; no more than 300 nM with Human AML MV-4-11 cells; no more than 300 nM in experiment [2]; no more than 300 nM in the experiment with hIL-6 mRNA in U937 cells; 300 to 3000 nM in experiment [3]. In experiment [4], the ApoA-1 activity result was “+++ (EC170 value less than or equal to 0.3 μM were deemed to be highly active (+++))”.

With `COc1ncccc1-c1cc(-c2c(C)noc2C)cc2[nH]c(=O)n(C)c12` [Example Compound 13, 5-(3,5-dimethylisoxazol-4-yl)-7-(2-methoxypyridin-3-yl)-1-methyl-1H-benzo[d]imidazol-2(3H)-one], the IC50 is no more than 300 nM in experiment [1]; 300 to 3000 nM with Human AML MV-4-11 cells; no more than 300 nM in experiment [2]; 300 to 3000 nM in the experiment on hIL-6 mRNA in U937 cells; 300 to 3000 nM in experiment [3]. In experiment [4], the ApoA-1 activity entry is listed as “+++ (EC170 value less than or equal to 0.3 μM were deemed to be highly active (+++))”.
